Measurements reported in PubChem BioAssay AID1224921 (Broad Institute, 2016).
The source made the active and inactive calls. No rule for the calls is given here.

Tested on: Clostridioides difficile clinical isolate growth, OD600, 24 h
Assay: C. difficile growth inhibition, confirmation, 4-point retest (AID 1224921)

First: O=C(C[C@H]1CC[C@H]2[C@@H](COC[C@@H](O)CN2C(=O)Nc2ccc(C(F)(F)F)cc2)O1)NC1Cc2ccccc2C1
Second: COc1ccccc1CNC(=O)C[C@@H]1CC[C@@H]2[C@H](COC[C@H](O)CN2C(=O)Nc2ccc(C(F)(F)F)cc2)O1
The AC50 of the first is 12-fold higher: 7.54 µM for the first, 0.614 µM for the second.

Compared with `CO[C@H]1CN(C)C(=O)c2ccc(NC(=O)Nc3ccc(Cl)c(Cl)c3)cc2OC[C@H](C)NC[C@@H]1C`, `CO[C@H]1CN(C)C(=O)c2ccc(NC(=O)Nc3cc(Cl)cc(Cl)c3)cc2OC[C@@H](C)NC[C@H]1C` is 13-fold higher in AC50: 1.2 µM for the first, 15.1 µM for the second.

`O=C(C[C@H]1CC[C@H]2[C@@H](COC[C@H](O)CN2C(=O)Nc2ccc(Cl)c(Cl)c2)O1)NCc1ccc(Cl)cc1` and `O=C(C[C@@H]1CC[C@@H]2[C@H](COC[C@H](O)CN2C(=O)Nc2ccc(Cl)c(Cl)c2)O1)NCc1ccc(F)cc1` are within 1.5-fold of each other in AC50: 1.07 µM for the first, 0.968 µM for the second.

First: O=C(C[C@H]1CC[C@@H]2[C@H](COC[C@@H](O)CN2C(=O)Nc2ccc(Cl)c(Cl)c2)O1)NC1CCC1
Second: O=C(C[C@H]1CC[C@H]2[C@@H](COC[C@@H](O)CN2C(=O)Nc2ccc(Cl)c(Cl)c2)O1)NC1CCC1
The AC50 of the first is 2-fold higher: 8.68 µM for the first, 4.29 µM for the second.

`CCNC(=O)C[C@H]1CC[C@H]2[C@@H](COC[C@@H](O)CN2C(=O)Nc2ccc(Cl)c(Cl)c2)O1` and `CCCNC(=O)C[C@H]1CC[C@@H]2[C@H](COC[C@@H](O)CN2C(=O)Nc2ccc(Cl)c(Cl)c2)O1` are within 1.5-fold of each other in AC50: 3.9 µM for the first, 2.91 µM for the second.

Compared with `O=C(NCC[C@@H]1CC[C@@H](NC(=O)c2cccnc2)[C@H](CO)O1)Nc1ccc(C(F)(F)F)cc1`, `O=C(NCC[C@@H]1CC[C@H](NC(=O)c2cccnc2)[C@@H](CO)O1)Nc1ccc(C(F)(F)F)cc1` is 5.4-fold higher in AC50: 3.16 µM for the first, 17 µM for the second.

`C[C@H](CO)N1C[C@H](C)[C@H](CN(C)CC2CCCCC2)Oc2ccc(NC(=O)Nc3ccc(C(F)(F)F)cc3)cc2C1=O` and `C[C@@H]1CCCCO[C@@H](CN(C)CC2CCCCC2)[C@H](C)CN([C@H](C)CO)C(=O)c2cc(NC(=O)Nc3ccc(C(F)(F)F)cc3)ccc2O1` are within 1.5-fold of each other in AC50: 15.2 µM for the first, 16.2 µM for the second.

First: Cc1ccc(S(=O)(=O)N[C@H]2CC[C@@H](CCNC(=O)Nc3ccc(Cl)cc3)O[C@H]2CO)cc1
Second: O=C(NCC[C@@H]1CC[C@H](NC(=O)C2CCCCC2)[C@H](CO)O1)Nc1ccc(Cl)cc1
The AC50 of the first is 1.6-fold lower: 18.2 µM for the first, 30 µM for the second.

`COc1ccc(CN(C)C[C@@H]2OCCCC[C@H](C)Oc3ccc(NC(=O)Nc4ccc(C(F)(F)F)cc4)cc3C(=O)N([C@H](C)CO)C[C@H]2C)cc1` and `COc1ccc(CN(C)C[C@H]2OCCCC[C@@H](C)Oc3ccc(NC(=O)Nc4ccc(C(F)(F)F)cc4)cc3C(=O)N([C@@H](C)CO)C[C@@H]2C)cc1` are within 1.5-fold of each other in AC50: 3.24 µM for the first, 4.74 µM for the second.

`CNC[C@@H]1OCCCC[C@@H](C)Oc2ccc(NC(=O)Nc3ccc(C(F)(F)F)cc3)cc2C(=O)N([C@@H](C)CO)C[C@@H]1C` and `CNC[C@@H]1OCCCC[C@H](C)Oc2ccc(NC(=O)Nc3ccc(C(F)(F)F)cc3)cc2C(=O)N([C@H](C)CO)C[C@@H]1C` are within 1.5-fold of each other in AC50: 17.5 µM for the first, 19.2 µM for the second.

First: CCNC(=O)C[C@H]1CC[C@@H]2[C@H](COC[C@H](O)CN2C(=O)Nc2ccc(C(F)(F)F)cc2)O1
Second: CCNC(=O)C[C@@H]1CC[C@H]2[C@@H](COC[C@@H](O)CN2C(=O)Nc2ccc(C(F)(F)F)cc2)O1
The AC50 of the first is 3-fold lower: 3.45 µM for the first, 10.4 µM for the second.

First: O=C(C[C@H]1CC[C@H]2[C@@H](COC[C@@H](O)CN2C(=O)Nc2ccc(C(F)(F)F)cc2)O1)NCC1CC1
Second: O=C(C[C@@H]1CC[C@H]2[C@@H](COC[C@@H](O)CN2C(=O)Nc2ccc(C(F)(F)F)cc2)O1)NCC1CC1
The AC50 of the first is 3.4-fold lower: 1.18 µM for the first, 3.98 µM for the second.

`C=C1CC(c2ccc(-c3ccccc3)cc2)OC1=O` (configuration not stated) and `C[C@@H]1CN([C@H](C)CO)C(=O)c2cccc(NC(=O)Nc3ccc(C(F)(F)F)cc3)c2O[C@@H]1CN(C)Cc1ccc(-c2ccccc2)cc1` are within 1.5-fold of each other in AC50: 13.7 µM for the first, 18.3 µM for the second.

First: C[C@@H]1CN([C@H](C)CO)C(=O)c2cc(NC(=O)Nc3ccc(C(F)(F)F)cc3)ccc2O[C@@H](C)CCCCO[C@H]1CN(C)Cc1ccc2c(c1)OCO2
Second: C[C@@H]1CCCCO[C@@H](CN(C)CC2CC2)[C@@H](C)CN([C@H](C)CO)C(=O)c2cc(NC(=O)Nc3ccc(C(F)(F)F)cc3)ccc2O1
The AC50 of the first is 4.5-fold lower: 7.9 µM for the first, 35.5 µM for the second.

`C[C@H]1CN([C@@H](C)CO)C(=O)c2cccc(NC(=O)Nc3ccc(C(F)(F)F)cc3)c2O[C@@H]1CN(C)C(=O)Nc1ccccc1` and `CC(C)NC(=O)N(C)C[C@@H]1Oc2c(NC(=O)Nc3ccc(C(F)(F)F)cc3)cccc2C(=O)N([C@H](C)CO)C[C@@H]1C` are within 1.5-fold of each other in AC50: 32.2 µM for the first, 23.3 µM for the second.

Going from `O=C(C[C@H]1CC[C@H]2[C@@H](COC[C@H](O)CN2C(=O)Nc2cc(Cl)cc(Cl)c2)O1)N1CCCCC1` to `O=C(C[C@@H]1CC[C@@H]2[C@H](COC[C@H](O)CN2Cc2ccc(Oc3ccccc3)cc2)O1)N1CCCCC1`, the AC50 rises from 3.29 µM to 20.6 µM (6.3-fold).

First: O=C(C[C@H]1CC[C@H]2[C@@H](COC[C@H](O)CN2C(=O)Nc2ccc(Cl)c(Cl)c2)O1)NCc1ccc(Cl)c(Cl)c1
Second: O=C(C[C@H]1CC[C@@H]2[C@H](COC[C@@H](O)CN2C(=O)Nc2ccc(Cl)c(Cl)c2)O1)NCc1ccc(F)cc1
The AC50 of the first is 2.4-fold lower: 0.886 µM for the first, 2.15 µM for the second.

Compared with `O=C(C[C@H]1CC[C@H]2[C@@H](COC[C@H](O)CN2C(=O)Nc2ccc(Cl)c(Cl)c2)O1)NCc1ccncc1`, `O=C(C[C@@H]1CC[C@H]2[C@@H](COC[C@@H](O)CN2C(=O)Nc2ccc(Cl)c(Cl)c2)O1)NCc1ccccc1` is 2.8-fold higher in AC50: 0.575 µM for the first, 1.6 µM for the second.

`CN(C)CC(=O)N[C@@H]1CC[C@@H](CCNC(=O)Nc2ccc(C(F)(F)F)cc2)O[C@H]1CO` and `CN(C)CC(=O)N[C@@H]1CC[C@@H](CCNC(=O)Nc2ccc(C(F)(F)F)cc2)O[C@@H]1CO` are within 1.5-fold of each other in AC50: 4.63 µM for the first, 4.58 µM for the second.

`C[C@H]1CN([C@@H](C)CO)S(=O)(=O)c2ccc(C#CC3CCCCC3)cc2O[C@H]1CN(C)C` and `C[C@@H]1CN([C@H](C)CO)S(=O)(=O)c2ccc(C#CC3CCCCC3)cc2O[C@@H]1CN(C)C` are within 1.5-fold of each other in AC50: 16.4 µM for the first, 16.9 µM for the second.

`C[C@@H]1CCCCO[C@@H](CN(C)C(=O)CCCN(C)C)[C@H](C)CN([C@H](C)CO)C(=O)c2cc(NC(=O)Nc3ccc(C(F)(F)F)cc3)ccc2O1` and `C[C@@H]1CN([C@@H](C)CO)C(=O)c2cc(NS(=O)(=O)c3cn(C)cn3)ccc2O[C@@H](C)CCCCO[C@@H]1CN(C)C(=O)Nc1ccc(C(F)(F)F)cc1` are within 1.5-fold of each other in AC50: 7.16 µM for the first, 5.78 µM for the second.

Going from `COc1ccccc1CNC(=O)C[C@H]1CC[C@@H]2[C@H](COC[C@H](O)CN2C(=O)Nc2ccc(C(F)(F)F)cc2)O1` to `O=C(C[C@@H]1CC[C@@H]2[C@H](COC[C@H](O)CN2C(=O)Nc2ccc(C(F)(F)F)cc2)O1)NCCc1ccncc1`, the AC50 rises from 1.04 µM to 3.46 µM (3.3-fold).

Compared with `CO[C@@H](CN(C)C(=O)C1CC1)[C@@H](C)CN(C(=O)Nc1ccc(C(F)(F)F)cc1)[C@H](C)CO`, `CO[C@@H](CN(C)C(=O)C1CC1)[C@@H](C)CN(C(=O)Nc1ccc(C(F)(F)F)cc1)[C@@H](C)CO` is 4.4-fold lower in AC50: 14.7 µM for the first, 3.31 µM for the second.

First: CC(=O)N[C@H]1CC[C@H](CCNC(=O)Nc2ccc(C(F)(F)F)cc2)O[C@@H]1CO
Second: CCC(=O)N[C@@H]1CC[C@@H](CCNC(=O)Nc2ccc(C(F)(F)F)cc2)O[C@H]1CO
The AC50 of the first is 3.5-fold higher: 9.65 µM for the first, 2.75 µM for the second.

Compared with `O=C(C[C@@H]1CC[C@@H]2[C@H](COC[C@@H](O)CN2C(=O)Nc2ccc(C(F)(F)F)cc2)O1)NCC1CCCCC1`, `O=C(C[C@H]1CC[C@@H]2[C@H](COC[C@H](O)CN2C(=O)Nc2ccc(C(F)(F)F)cc2)O1)NCC1CCCCC1` is 1.7-fold lower in AC50: 2.03 µM for the first, 1.21 µM for the second.

Compared with `C[C@@H]1CN([C@@H](C)CO)C(=O)c2cccc(NC(=O)Nc3ccc4c(c3)OCO4)c2O[C@@H]1CN(C)Cc1ccc(-c2ccccc2)cc1`, `C[C@@H]1CN([C@@H](C)CO)C(=O)c2cccc(NC(=O)Nc3ccc(C(F)(F)F)cc3)c2O[C@@H]1CN(C)Cc1ccc(Oc2ccccc2)cc1` is lower in AC50: 0.665 µM for the first, < 0.5 µM for the second.

`Cc1noc(C)c1NC(=O)Nc1cccc2c1O[C@H](CN(C)Cc1ccc(Oc3ccccc3)cc1)[C@H](C)CN([C@@H](C)CO)C2=O` and `COc1ccc(S(=O)(=O)Nc2ccc3c(c2)C(=O)N([C@@H](C)CO)C[C@H](C)[C@@H](CN(C)Cc2ccc4c(c2)OCO4)OCCCC[C@@H](C)O3)cc1` are within 1.5-fold of each other in AC50: 9.38 µM for the first, 6.68 µM for the second.

Going from `CO[C@@H](CN(C)Cc1cc(F)ccc1F)[C@@H](C)CN(C(=O)Nc1ccc(C(F)(F)F)cc1)[C@H](C)CO` to `CO[C@@H](CN(C)Cc1cc(F)ccc1F)[C@@H](C)CN(C(=O)Nc1ccc(C(F)(F)F)cc1)[C@@H](C)CO`, the AC50 rises from 6.79 µM to 13.1 µM (1.9-fold).

`O=C(C[C@@H]1CC[C@H]2[C@@H](COC[C@@H](O)CN2S(=O)(=O)c2ccc(Cl)cc2)O1)NCC1CCCCC1` and `C[C@@H]1CN([C@H](C)CO)C(=O)Cc2cc(NS(=O)(=O)c3ccc(Cl)cc3)ccc2O[C@H]1CN(C)CC1CCCCC1` are within 1.5-fold of each other in AC50: 15.8 µM for the first, 18 µM for the second.

`C[C@@H]1CN([C@H](C)CO)S(=O)(=O)c2ccc(C#Cc3ccccc3)cc2O[C@H]1CN(C)C` and `C[C@H]1CN([C@@H](C)CO)S(=O)(=O)c2ccc(C#Cc3ccc(F)cc3)cc2O[C@@H]1CN(C)C` are within 1.5-fold of each other in AC50: 28.4 µM for the first, 34.2 µM for the second.

First: O=C(NCC[C@@H]1CC[C@H](NC(=O)C2CC2)[C@@H](CO)O1)Nc1ccc(C(F)(F)F)cc1
Second: O=C(NCC[C@@H]1CC[C@H](NC(=O)C2CC2)[C@H](CO)O1)Nc1ccc(C(F)(F)F)cc1
The AC50 of the first is 2.2-fold lower: 1.95 µM for the first, 4.32 µM for the second.

Compared with `O=C(NCC[C@H]1CC[C@H](NC(=O)C2CC2)[C@H](CO)O1)Nc1ccc(C(F)(F)F)cc1`, `CCC(=O)N[C@H]1CC[C@@H](CCNC(=O)Nc2ccc(C(F)(F)F)cc2)O[C@@H]1CO` is 5.9-fold lower in AC50: 16 µM for the first, 2.73 µM for the second.

With `CO[C@@H]1CN(C)C(=O)c2cc(NC(=O)Nc3cc(Cl)cc(Cl)c3)ccc2OC[C@H](C)NC[C@H]1C` the AC50 was 5.04 µM.

With `C[C@@H]1CCCCO[C@@H](CN(C)Cc2ccc3c(c2)OCO3)[C@H](C)CN([C@@H](C)CO)C(=O)c2cc(NC(=O)Nc3ccc(C(F)(F)F)cc3)ccc2O1` the AC50 was > 60 µM (inactive).
In the case of `CCCC(=O)Nc1ccc2c(c1)C(=O)N(C)[C@@H]1CC[C@@H](CC(=O)OC)O[C@@H]1CO2`, the AC50 is reported as > 60 µM (inactive).
For `CO[C@@H]1CN(C)C(=O)c2cc(NC(=O)Nc3ccc(F)cc3)ccc2OC[C@@H](C)NC[C@@H]1C`, the AC50 was > 60 µM (inactive).
`N#C[C@H]1[C@@H](c2ccc(C#CC3CCCC3)cc2)[C@H](CO)N1C(=O)Nc1ccc(F)cc1` was tested, and the AC50 was > 60 µM (inactive).
With `C[C@H](CO)N1C[C@H](C)[C@H](CN(C)C(=O)Nc2ccc(C(F)(F)F)cc2)Oc2c(NC(=O)Nc3ccccc3)cccc2C1=O` the AC50 was > 60 µM (inactive).
With `O=C(C[C@@H]1C[C@H]2c3cc(NC(=O)NC4CCCC4)ccc3O[C@H]2[C@H](CO)O1)NCc1ccc2c(c1)OCO2` the AC50 was > 60 µM (inactive).
`C[C@H](CO)N1C[C@H](C)[C@@H](CN(C)CC2CCCC2)Oc2ncc(C#CCc3ccccc3)cc2C1=O` was tested, and the AC50 was > 60 µM (inactive).
